The EC50 is the concentration that produces a half-maximal response. A higher EC50 goes with a less potent agent.

In this experiment the target is T1, GPR119 receptor (Mesocricetus auratus, UniProt A0A1U8CD06).
T1 construct: which endogenously express the GPR119 receptor; host or cells: HIT-T15 hamster pancreatic islet cells
T1 sequence (A0A1U8CD06 1-334): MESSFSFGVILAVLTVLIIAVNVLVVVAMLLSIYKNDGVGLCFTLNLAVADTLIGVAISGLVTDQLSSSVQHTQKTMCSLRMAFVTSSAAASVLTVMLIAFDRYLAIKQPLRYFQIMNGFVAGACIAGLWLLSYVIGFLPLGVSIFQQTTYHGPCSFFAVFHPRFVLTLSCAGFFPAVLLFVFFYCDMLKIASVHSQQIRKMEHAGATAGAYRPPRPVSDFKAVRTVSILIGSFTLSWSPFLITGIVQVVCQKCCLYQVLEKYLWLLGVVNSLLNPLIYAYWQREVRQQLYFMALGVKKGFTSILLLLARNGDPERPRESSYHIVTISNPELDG
The experiment in a line: cAMP assay in HIT-T15 hamster pancreatic islet cells (functional agonist activity). The format is cell-based. The settings on record: HIT-T15 cells endogenously expressing GPR119; 30 min at 25° C.; intracellular cAMP. A digest of the protocol: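 HIT-T15 cells (endogenous GPR119), 9000/well, exposed to agonist 30 min at 25° C with 0.5 mM IBMX and 0.5 mg/ml BSA. Lysate cAMP measured by chemiluminescent competitive immunoassay; EC50 from curve fit.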
A general note: cAMP levels reflect the balance of adenylyl cyclase and phosphodiesterase activity.
Consider `CS(=O)(=O)c1ccc(Oc2ncnc3c2cnn3C2CCN(C(=O)c3ccccc3)CC2)cc1` [Example 149, {4-[4-(4-Methanesulfonyl-phenoxy)-pyrazolo[3,4-d]pyrimidin-1-yl]-piperidin-1-yl}-phenylmethanone], for which the EC50 stood at 1.7 µM. On to `CC(C)(C)C(=O)N1CCC(n2ncc3c(Oc4ccc(S(C)(=O)=O)cc4)ncnc32)CC1` [Example 138, 1-{4-[4-(4-Methanesulfonyl-phenoxy)-pyrazolo[3,4-d]pyrimidin-1-yl]-piperidin-1-yl}-2,2-dimethyl-propan-1-one], for which the EC50 amounted to 0.78 µM.

As to `CC(C)(C)OC(=O)N1CCC(n2ncc3c(Oc4ccc(S(C)(=O)=O)cc4F)ncnc32)CC1` [Example 60, 4-[4-(2-Fluoro-4-methanesulfonyl-phenoxy)-pyrazolo[3,4-d]pyrimidin-1-yl]-piperidine-1-carboxylic acid tert-butyl ester], the EC50 came to 0.048 µM. In turn, `CC(C)(OC(=O)N1CCC(n2ncc3c(Oc4ccc(S(C)(=O)=O)cc4)ncnc32)CC1)C(F)(F)F` [Example 111, 4-[4-(4-Methanesulfonyl-phenoxy)-pyrazolo[3,4-d]pyrimidin-1-yl]-piperidine-1-carboxylic acid 2,2,2-trifluoro-1,1-dimethyl-ethyl ester] came in with an EC50 of 0.05 µM.

In turn, `CS(=O)(=O)c1ccc(Oc2ncnc3c2cnn3C2CCN(Cc3ccc4c(c3)OC(F)(F)O4)CC2)cc1` [Example 163, 1-[1-(2,2-Difluoro-benzo[1,3]dioxol-5-ylmethyl)-piperidin-4-yl]-4-(4-methanesulfonyl-phenoxy)-1H-pyrazolo[3,4-d]pyrimidine] had an EC50 of 0.14 µM. In turn, `CC(C)(C)OC(=O)N1CCC(n2ncc3c(Oc4ccc(S(C)(=O)=O)c(F)c4)ncnc32)CC1` [Example 61, 4-[4-(3-Fluoro-4-methanesulfonyl-phenoxy)-pyrazolo[3,4-d]pyrimidin-1-yl]-piperidine-1-carboxylic acid tert-butyl ester] registered an EC50 of 0.095 µM. The same measure for `Cc1nnnn1-c1ccc(Oc2ncnc3c2cnn3[C@H]2CC[C@H](c3nc(C(C)C)no3)CC2)cc1` [Example 133, 1-[4-(3-Isopropyl-[1,2,4]oxadiazol-5-yl)-trans-cyclohexyl]-4-[4-(5-methyl-tetrazol-1-yl)phenoxy]-1H-pyrazolo[3,4-d]pyrimidine]: 3.34 µM.

Regarding `CC(C)(C)OC(=O)N1CCCC(n2ncc3c(Oc4ccccc4C#N)ncnc32)C1` (stereo not drawn) [Example 90, 3-[4-(2-Cyano-phenoxy)-pyrazolo[3,4-d]pyrimidin-1-yl]-piperidine-1-carboxylic acid tert-butyl ester], the EC50 worked out at 0.12 µM. For `Cc1cc(C(=O)N2CCC(n3ncc4c(Oc5ccc(S(C)(=O)=O)cc5)ncnc43)CC2)nn1C` [Example 152, (1,5-Dimethyl-1H-pyrazol-3-yl)-{4-[4-(4-methanesulfonyl-phenoxy)-pyrazolo[3,4-d]pyrimidin-1-yl]-piperidin-1-yl}-methanone], a half-maximal response (EC50) required 0.39 µM. `N#Cc1ccc(F)c(F)c1Oc1ncnc2c1cnn2C1CCN(C(=O)OC2CCCC2)CC1` [Example 119, 4-[4-(6-Cyano-2,3-difluoro-phenoxy)-pyrazolo[3,4-d]pyrimidin-1-yl]-piperidine-1-carboxylic acid cyclopentyl ester] gave an EC50 of 0.063 µM. The same measure for `CC(C)OC(=O)N1CCC(n2ncc3c(Nc4cc(F)c(F)cc4F)ncnc32)CC1` [Example 2, 4-[4-(2,4,5-Trifluoro-phenylamino)-pyrazolo[3,4-d]pyrimidin-1-yl]-piperidine-1-carboxylic acid isopropyl ester]: 3.1 µM.

`CC(C)(C)OC(=O)N1CCCC(n2ncc3c(Oc4ccc(S(C)(=O)=O)cc4)ncnc32)C1` (single isomer, unassigned) [Example 88] yielded an EC50 of 0.045 µM. `CC(C)(C)OC(=O)N1CCC(n2ncc3c(Oc4ccc(-n5ncnn5)cc4)ncnc32)CC1` [Example 82, 4-[4-(4-Tetrazol-2-yl-phenoxy)-pyrazolo[3,4-d]pyrimidin-1-yl]-piperidine-1-carboxylic acid tert-butyl ester]: it took 1.8 µM to reach a half-maximal effect (EC50). For the molecule `COc1ccccc1CN1CCC(n2ncc3c(Oc4ccc(S(C)(=O)=O)cc4)ncnc32)CC1` [Example 165, 4-(4-Methanesulfonyl-phenoxy)-1-[1-(2-methoxy-benzyl)-piperidin-4-yl]-1H-pyrazolo[3,4-d]pyrimidine], a half-maximal effect (EC50) was put at 1.4 µM. As to `CC(C)(C)OC(=O)N1CCC(n2ncc3c(Oc4cc(F)c(F)cc4F)ncnc32)CC1` [Example 35, 4-[4-(2,4,5-Trifluoro-phenoxy)-pyrazolo[3,4-d]pyrimidin-1-yl]-piperidine-1-carboxylic acid tert-butyl ester], a half-maximal response (EC50) required 0.088 µM. `CC(C)(C)OC(=O)N1CCC(n2ncc3c(Oc4ccc5c(c4)OCO5)ncnc32)CC1` [Example 41, 4-[4-(Benzo[1,3]dioxol-5-yloxy)-pyrazolo[3,4-d]pyrimidin-1-yl]-piperidine-1-carboxylic acid tert-butyl ester] showed an EC50 of 0.29 µM. As to `Cc1ncccc1Oc1ncnc2c1cnn2C1CCN(c2nc(C(C)C)no2)CC1` [Example 129, 1-[1-(3-Isopropyl-[1,2,4]oxadiazol-5-yl)-piperidin-4-yl]-4-(2-methyl-pyridin-3-yloxy)-1H-pyrazolo[3,4-d]pyrimidine], the EC50 is 2.3 µM. `CC(C)(C)OC(=O)N1CCC(n2ncc3c(Oc4ccc5c(c4)C=CS5(=O)=O)ncnc32)CC1` [Example 78, 4-[4-(1,1-Dioxo-1H-1λ^6-benzo[b]thiophen-5-yloxy)-pyrazolo[3,4-d]pyrimidin-1-yl]-piperidine-1-carboxylic acid tert-butyl ester]: the EC50 amounted to 0.75 µM. `CS(=O)(=O)c1ccc(Oc2ncnc3c2cnn3C2CCN(C(=O)CC3CCCCC3)CC2)cc1` [Example 145, 2-Cyclohexyl-1-{4-[4-(4-methanesulfonyl-phenoxy)-pyrazolo[3,4-d]pyrimidin-1-yl]-piperidin-1-yl}-ethanone]: the EC50 is 0.58 µM. On to `CC(=O)Nc1cccc(Oc2ncnc3c2cnn3C2CCN(C(=O)OC(C)(C)C)CC2)c1` [Example 69, 4-[4-(3-Acetylamino-phenoxy)-pyrazolo[3,4-d]pyrimidin-1-yl]-piperidine-1-carboxylic acid tert-butyl ester], for which the midpoint of the response, the EC50, lay at 0.6 µM. With `CC(C)(C)OC(=O)N1CCC(n2ncc3c(Oc4ccc5sccc5c4)ncnc32)CC1` [Example 77, 4-[4-(Benzo[b]thiophen-5-yloxy)-pyrazolo[3,4-d]pyrimidin-1-yl]-piperidine-1-carboxylic acid tert-butyl ester], a half-maximal effect (EC50) was put at 0.99 µM. Molecule `CC(C)(OC(=O)N1CCC(n2ncc3c(Oc4ccc(S(C)(=O)=O)cc4)ncnc32)CC1)C(Cl)(Cl)Cl` [Example 114, 4-[4-(4-Methanesulfonyl-phenoxy)-pyrazolo[3,4-d]pyrimidin-1-yl]-piperidine-1-carboxylic acid 2,2,2-trichloro-1,1-dimethyl-ethyl ester] returned an EC50 of 0.044 µM.

`CC(C)(C)OC(=O)N1CCC(n2ncc3c(Oc4ccc(F)cc4)ncnc32)CC1` [Example 34, 4-[4-(4-Fluoro-phenoxy)-pyrazolo[3,4-d]pyrimidin-1-yl]-piperidine-1-carboxylic acid tert-butyl ester] came in with an EC50 of 0.53 µM. For `CC(C)(C)OC(=O)N1CCC(n2ncc3c(Oc4ccc(Cl)cc4C#N)ncnc32)CC1` [Example 51, 4-[4-(4-Chloro-2-cyano-phenoxy)-pyrazolo[3,4-d]pyrimidin-1-yl]-piperidine-1-carboxylic acid tert-butyl ester], it took 0.11 µM to reach a half-maximal effect (EC50). The molecule `CS(=O)(=O)c1ccc(Oc2ncnc3c2cnn3C2CCN(C(=O)CCc3ccccc3)CC2)cc1` [Example 146, 1-{4-[4-(4-Methanesulfonyl-phenoxy)-pyrazolo[3,4-d]pyrimidin-1-yl]-piperidin-1-yl}-3-phenyl-propan-1-one] came in with an EC50 of 1 µM. `CC(C)(C)OC(=O)N1CCC(n2ncc3c(Oc4cccc5ncccc45)ncnc32)CC1` [Example 71, 4-[4-(Quinolin-5-yloxy)-pyrazolo[3,4-d]pyrimidin-1-yl]-piperidine-1-carboxylic acid tert-butyl ester]: a half-maximal effect (EC50) was put at 0.75 µM. For `CC(=O)Nc1ccc(Oc2ncnc3c2cnn3C2CCN(C(=O)OC(C)C)CC2)cc1` [Example 25, 4-[4-(4-Acetylamino-phenoxy)-pyrazolo[3,4-d]pyrimidin-1-yl]-piperidine-1-carboxylic acid isopropyl ester], the EC50 turned out to be 0.46 µM. In the case of `CS(=O)(=O)c1ccc(Oc2ncnc3c2cnn3C2CCN(C(=O)C3CCC3)CC2)cc1` [Example 140, Cyclobutyl-{4-[4-(4-methanesulfonyl-phenoxy)-pyrazolo[3,4-d]pyrimidin-1-yl]-piperidin-1-yl}-methanone], the EC50 is 0.75 µM.

`CC(C)c1noc([C@H]2CC[C@H](n3ncc4c(Oc5ccc(S(C)(=O)=O)cc5F)ncnc43)CC2)n1` [Example 132, 4-(2-Fluoro-4-methanesulfonyl-phenoxy)-1-[4-(3-isopropyl-[1,2,4]oxadiazol-5-yl)-trans-cyclohexyl]-1H-pyrazolo[3,4-d]pyrimidine] displayed an EC50 of 0.35 µM. The same measure for `CS(=O)(=O)c1ccc(Oc2ncnc3c2cnn3C2CCN(Cc3nccs3)CC2)cc1` [Example 169, 4-(4-Methanesulfonyl-phenoxy)-(1-thiazol-2-ylmethyl-piperidin-4-yl)-1H-pyrazolo[3,4-d]pyrimidine]: 3.6 µM.

(Values after patent US8188098B2, “GPR119 receptor agonists” (Hoffmann-La Roche Inc., priority 2008, dated 2012).)
